A short description of experiment [1]: Inhibition of rat liver glucosidase 2 assessed as inhibition of conversion of G1M9 to M9.
A short description of experiment [2]: Inhibition of rat liver glucosidase 2 assessed as inhibition of conversion of G2M9 to G1M9.
The species named for experiment [3] is Rattus norvegicus. As to the kind of experiment: Inhibition of rat liver glucosidase 2 assessed as inhibition of consumption at 100 uM after 20 mins.
Experiment [4] is filed under the species Rattus norvegicus. As to the kind of experiment: Inhibition of rat liver glucosidase 2 assessed as inhibition of consumption at 100 uM after 24 hrs.
The species entered for experiment [5] is Rattus norvegicus. As to the kind of experiment: Inhibition of rat liver glucosidase 2 assessed as inhibition of consumption at 100 uM after 1 hr.

Each structure is given as a SMILES string. A value given as a limit tells only on which side of the number the result lay.

Regarding `OC[C@H]1NC[C@H](O)[C@@H](O)[C@@H]1O` [DUVOGLUSTAT], the IC50 turned out to be 11.2 µM in experiment [1] and 8.2 µM in experiment [2].

With `O[C@H]1[C@H](O)C=CC(Br)[C@@H]1O` (some centres undefined) [BROMOCONDURITOL], the values for the inhibition in the experiment listed under Rattus norvegicus [3], in the experiment listed under Rattus norvegicus [4] and in the experiment filed under Rattus norvegicus [5] were 36%, less than 10% and 20%, respectively. For the same molecule, the IC50 worked out at 41 µM in experiment [1] and 262 µM in experiment [2].

For `O[C@H]1[C@H](O)[C@@H](O)CN2CC[C@H](O)[C@H]12` [CASTANOSPERMINE], the values for the IC50 in experiment [1] and in experiment [2] were 1.1 µM and 1.3 µM, respectively.

For the origin of these results see ChEMBL document CHEMBL1221282, “The action of bromoconduritol on ER glucosidase II” (Bioorg Med Chem Lett, 2010).
